“And” between values parts separate entries of the source, which are not always exact repeats. Identical values can stand only once.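 Test compounds were applied to cells in 96-well plates for 48 hours at 5 doses. GI50 marks 50% less growth. TGI is the concentration that stops growth completely.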
Legend:
Assay in all cases: NCI tumour cell line growth inhibition, 48 h
786-0 renal = tested on: 786-0 renal
EKVX NSCLC = tested on: EKVX NSCLC
HCT-15 colon = tested on: HCT-15 colon
HOP-92 NSCLC = tested on: HOP-92 NSCLC
IGROV1 ovarian = tested on: IGROV1 ovarian
OVCAR-5 ovarian = tested on: OVCAR-5 ovarian
OVCAR-8 ovarian = tested on: OVCAR-8 ovarian
PC-3 prostate = tested on: PC-3 prostate
SN12C renal = tested on: SN12C renal
T-47D breast = tested on: T-47D breast

Compound	TGI (786-0 renal)	TGI (EKVX NSCLC)	TGI (HCT-15 colon)	TGI (HOP-92 NSCLC)	TGI (IGROV1 ovarian)	TGI (OVCAR-5 ovarian)	TGI (OVCAR-8 ovarian)	TGI (PC-3 prostate)	TGI (SN12C renal)	TGI (T-47D breast)	GI50 (EKVX NSCLC)	GI50 (HCT-15 colon)	GI50 (HOP-92 NSCLC)	GI50 (IGROV1 ovarian)	GI50 (OVCAR-8 ovarian)	GI50 (SN12C renal)	GI50 (T-47D breast)
CCOC(=O)n1c2ccccc2c2c(O)c(OC)c3c(c21)C(=O)NC3=O	98.5 µM	> 100 µM	> 100 µM	> 100 µM	> 100 µM	> 100 µM	> 100 µM	> 100 µM	> 100 µM	> 100 µM	–	–	–	–	–	–	–
O=C(O)C(C1NCCS1)N1Cc2ccccc2C1 (configuration not stated)	> 100 µM	> 100 µM	> 100 µM	> 100 µM	> 100 µM	> 100 µM	> 100 µM	> 100 µM	> 100 µM	> 100 µM	–	–	–	–	–	–	–
CN(C)c1ccc(C(=C2C=CC(=[N+](C)C)C=C2)c2c(O)c(S(=O)(=O)[O-])cc3cc(S(=O)(=O)O)ccc23)cc1	> 100 µM	> 100 µM	> 100 µM	> 100 µM	> 100 µM	> 100 µM	> 100 µM	> 100 µM	> 100 µM	> 100 µM	–	–	–	–	–	–	–
Cc1cc(C)c2c(=O)n(CC(O)CN3CCN(c4ncccn4)CC3)sc2n1 (configuration not stated)	27.6 µM	29.5 µM	35.4 µM	> 100 µM	> 100 µM	31.1 µM	38.2 µM	32.8 µM	31.6 µM	52.9 µM	–	–	–	–	–	–	–
COc1c(Cl)ccc(Cl)c1-c1nnc(-c2c(Cl)c(Cl)c(Cl)c(Cl)c2-c2nc3ccc(C(=O)c4ccccc4)cc3[nH]2)o1	> 100 µM	> 100 µM	> 100 µM	> 100 µM	> 100 µM	> 100 µM	> 100 µM	> 100 µM	> 100 µM	> 100 µM	–	–	–	–	–	–	–
NC1=CN2c3ccccc3N(CC(=O)N3CCOCC3)C2C=C1 (configuration not stated)	> 100 µM	> 100 µM	> 100 µM	> 100 µM	> 100 µM	> 100 µM	> 100 µM	> 100 µM	> 100 µM	> 100 µM	–	–	–	–	–	–	–
O=C1OS2(OC(=O)c3cccc4cccc2c34)c2ccccc21 (configuration not stated)	> 100 µM	> 100 µM	> 100 µM	> 100 µM	> 100 µM	> 100 µM	> 100 µM	> 100 µM	> 100 µM	> 100 µM	–	–	–	–	–	–	–
C(=C/c1ccc2nc(-c3ccc(/C=C/C=N/NC4=NCCCN4)cc3)cn2c1)/C=N/NC1=NCCCN1	> 100 µM	35.7 µM	> 100 µM	> 100 µM	> 100 µM	> 100 µM	39 µM	67.4 µM	> 100 µM	> 100 µM	–	–	–	–	–	–	–
S=c1sc2ccccc2n1CN1CCN(Cc2ccccc2)CC1	> 100 µM	> 100 µM	> 100 µM	> 100 µM	> 100 µM	> 100 µM	> 100 µM	> 100 µM	> 100 µM	> 100 µM	–	–	–	–	–	–	–
O=c1[nH]nc(Nc2ccccc2)c2nnn(Cc3ccccc3)c12	> 100 µM	> 100 µM	> 100 µM	> 100 µM	> 100 µM	> 100 µM	> 100 µM	> 100 µM	> 100 µM	> 100 µM	–	–	–	–	–	–	–
Nc1c2c(nc3ccccc13)-c1ccccc1CCC2	27.1 µM	44.8 µM	27.3 µM	25.9 µM	37.7 µM	30 µM	29.1 µM	36.3 µM	36.5 µM	37.5 µM	–	–	–	–	–	–	–
NCCCCN(CCCN)C(=O)OCc1ccccc1	> 100 µM	> 100 µM	> 100 µM	> 100 µM	> 100 µM	> 100 µM	> 100 µM	> 100 µM	> 100 µM	> 100 µM	–	–	–	–	–	–	–
CCOC(=O)C(C(N)=O)c1nc2cc([N+](=O)[O-])ccc2nc1/C=C(\O)c1ccc(C)cc1 (configuration not stated)	28.7 µM	> 100 µM	> 82.2 µM	40.8 µM	43 µM	> 100 µM	40.1 µM	40.4 µM	85.5 µM	> 100 µM	–	–	–	–	–	–	–
O=c1[nH]c(=O)n(COCCO)cc1-c1ccccc1	> 100 µM	> 100 µM	> 100 µM	> 100 µM	> 100 µM	> 100 µM	> 100 µM	> 100 µM	> 100 µM	> 100 µM	–	–	–	–	–	–	–
CC1CN=C(c2ccc3c(c2)Cc2cc(C4=NCC(C)N4)ccc2-3)N1 (configuration not stated)	> 100 µM	> 100 µM	> 100 µM	> 100 µM	> 100 µM	> 100 µM	> 100 µM	> 100 µM	> 100 µM	> 100 µM	–	–	–	–	–	–	–
CCCCc1ccc(Nc2nc(N)c3[nH]cnc3n2)cc1	33.2 µM	45.4 µM	66.1 µM	33.3 µM	27.9 µM	73.5 µM	31.8 µM	39.7 µM	31.1 µM	> 100 µM	–	–	–	–	–	–	–
COC(=O)c1ccc2c(c1)CCN2C(=O)c1cc2c(cc1Br)OCO2	27.4 µM and > 100 µM	50 µM and > 100 µM	50 µM and 23.5 µM	50 µM and 40.3 µM	50 µM and > 100 µM	> 50 µM	50 µM and 14.7 µM	5.52 µM and 20.6 µM	48.3 µM and > 100 µM	50 µM and 51.9 µM	3.77 µM	0.378 µM	0.432 µM	0.455 µM	1.52 µM	3.21 µM	0.982 µM
C=CCCCN1C(=O)C2C3c4ccccc4C(C=O)(c4ccccc43)C2C1=O (configuration not stated)	26.6 µM	20.7 µM	21.5 µM	28.2 µM	65.1 µM	45.1 µM	26.5 µM	26.3 µM	22.2 µM	> 100 µM	–	–	–	–	–	–	–
O=C(NCCc1ccc(F)cc1)c1cc(/C=C/c2cc(O)ccc2O)ccc1O	5.03 µM	6.38 µM	6.32 µM	3.97 µM	7.66 µM	22.3 µM	13.6 µM	10.9 µM	21.1 µM	5.28 µM	–	–	–	–	–	–	–
C/C(=N\NC(=S)N/N=C(\C)c1ccccn1)c1ccccn1	> 100 µM	84.3 µM	> 100 µM	> 100 µM	> 100 µM	> 100 µM	> 100 µM	> 100 µM	> 100 µM	> 100 µM	–	–	–	–	–	–	–
CC(C)OCC(O)COc1cc(=O)oc2ccccc12 (configuration not stated)	> 100 µM	> 100 µM	> 100 µM	> 100 µM	> 100 µM	> 100 µM	> 100 µM	> 100 µM	> 100 µM	> 100 µM	–	–	–	–	–	–	–
c1ccc2c(c1)N=c1ccccc1=P21c2ccccc2Nc2ccccc21	11.7 µM	> 31.1 µM	> 71.4 µM	2.32 µM	10.6 µM	3.81 µM	5.62 µM	10.1 µM	13.5 µM	1.63 µM	–	–	–	–	–	–	–
CN(CCN(C)Cc1ccc(Cl)c(Cl)c1)CCN1CCCC1	64.6 µM	> 100 µM	> 100 µM	82.1 µM	> 79.1 µM	> 100 µM	> 100 µM	> 100 µM	> 100 µM	> 100 µM	–	–	–	–	–	–	–
O=C(OCc1ccccc1[N+](=O)[O-])N1c2ccccc2[C@@]23O[C@]24CCC[C@H]3C#C/C=C\C#C[C@H]14	> 100 µM	> 100 µM	> 100 µM	> 100 µM	> 100 µM	> 100 µM	> 100 µM	> 100 µM	68.2 µM	> 100 µM	–	–	–	–	–	–	–
CO/C=C(/C(=O)OC)c1ccccc1[C@H]1C[C@@H]1c1ccc(OC)cc1	> 100 µM	50.2 µM	66.1 µM	> 100 µM	45.5 µM	> 100 µM	> 100 µM	> 100 µM	> 100 µM	56.7 µM	–	–	–	–	–	–	–
COC(=O)[C@@]12CC3CN(Cc4c1[nH]c1ccccc41)C2CC3=O	> 100 µM	> 100 µM	> 100 µM	> 100 µM	> 100 µM	> 100 µM	> 100 µM	> 100 µM	> 100 µM	> 100 µM	–	–	–	–	–	–	–
